Measured values: ChEMBL document CHEMBL6120962, “New Mitochondria-Targeted Fisetin Derivative Compromises Mitophagy and Limits Survival of Drug-Induced Senescent Breast Cancer Cells” (J Med Chem, 2024)
The source made the active and inactive calls. The rule behind the calls is not given here.

Columns and labels:
[1] = system: HCC1500; test: Anticancer activity against ER-positive human HCC1500 cells assessed as effect on metabolic activity upto 10 uM incubated for 24 hrs by MTT assay; type: functional, cell-based
[2] = system: HCC1428; test: Anticancer activity against ER-positive human HCC1428 cells assessed as effect on metabolic activity upto 10 uM incubated for 24 hrs by MTT assay; type: functional, cell-based
[3] = system: HCC1428; test: Induction of mitochondrial dysfunction in human HCC1428 cells assessed as decrease in maximal respiration at 5 uM incubated for 6 hrs by real time analysis; type: functional, cell-based
[4] = system: ZR-75-30; test: Anticancer activity against ER-positive human ZR-75-30 cells assessed as effect on metabolic activity upto 10 uM incubated for 24 hrs by MTT assay; type: functional, cell-based
[5] = molecular target: Apoptosis regulator Bcl-2 (Homo sapiens) (UniProt P10415); test: Binding affinity to recombinant human Bcl-2 assessed as interaction by measuring decrease in chemiluminescence signal at 0.01 to 5 uM incubated overnight by dot-blot analysis; settings: dose 0.01-5 µM
Chain of Apoptosis regulator Bcl-2 (Homo sapiens) (P10415 whole entry): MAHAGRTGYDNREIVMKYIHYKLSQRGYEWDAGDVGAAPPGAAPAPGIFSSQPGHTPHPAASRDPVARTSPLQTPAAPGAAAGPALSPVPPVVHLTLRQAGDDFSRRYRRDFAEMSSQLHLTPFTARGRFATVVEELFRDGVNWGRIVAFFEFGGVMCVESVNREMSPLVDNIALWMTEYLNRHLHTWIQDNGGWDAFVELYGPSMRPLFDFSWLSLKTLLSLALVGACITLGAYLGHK

[6] = Cytotoxicity against human MCF-10F cells assessed as effect on metabolic activity at 1 to 10 uM incubated for 24 hrs by MTT assay; type: toxicity, cell-based; settings: dose 1-10 µM
[7] = system: HCC1428; test: Induction of mitochondrial dysfunction in human HCC1428 cells assessed as decrease in coupling efficiency at 5 uM incubated for 6 hrs by real time analysis; type: functional, cell-based
[8] = system: BJ; test: Cytotoxicity against human BJ cells assessed as effect on metabolic activity at 1 to 10 uM incubated for 24 hrs by MTT assay; type: toxicity, cell-based; settings: dose 1-10 µM
[9] = molecular target: RAC-alpha serine/threonine-protein kinase (Homo sapiens) (UniProt P31749); test: Binding affinity to recombinant human AKT (14 to 276 residues) assessed as interaction by measuring decrease in chemiluminescence signal at 0.01 to 5 uM incubated overnight by dot-blot analysis; settings: dose 0.01-5 µM
Chain of RAC-alpha serine/threonine-protein kinase (Homo sapiens) (P31749 whole entry, the tested form may be a part): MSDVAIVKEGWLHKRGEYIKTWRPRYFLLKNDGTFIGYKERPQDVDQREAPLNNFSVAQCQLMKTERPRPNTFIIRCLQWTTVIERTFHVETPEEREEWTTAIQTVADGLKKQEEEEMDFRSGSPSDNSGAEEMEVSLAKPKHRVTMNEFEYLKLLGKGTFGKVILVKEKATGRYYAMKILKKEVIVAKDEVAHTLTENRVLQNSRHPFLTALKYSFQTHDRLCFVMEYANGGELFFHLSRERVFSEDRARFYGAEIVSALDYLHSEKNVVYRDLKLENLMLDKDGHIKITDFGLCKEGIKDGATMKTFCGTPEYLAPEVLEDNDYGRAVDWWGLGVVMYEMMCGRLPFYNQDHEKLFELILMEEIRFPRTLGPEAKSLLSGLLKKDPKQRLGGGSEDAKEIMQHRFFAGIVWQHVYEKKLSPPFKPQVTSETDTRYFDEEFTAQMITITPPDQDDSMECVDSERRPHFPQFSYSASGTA

[10] = system: HCC1428; test: Induction of mitochondrial dysfunction in human HCC1428 cells assessed as decrease in spare respiratory capacity at 5 uM incubated for 6 hrs by real time analysis; type: functional, cell-based
[11] = system: CAMA-1; test: Anticancer activity against ER-positive human CAMA-1 cells assessed as effect on metabolic activity upto 10 uM incubated for 24 hrs by MTT assay; type: functional, cell-based
[12] = system: HCC1428; test: Induction of mitochondrial dysfunction in human HCC1428 cells assessed as increase in proton leak at 5 uM incubated for 6 hrs by real time analysis; type: functional, cell-based
[13] = system: HCC1428; test: Induction of mitochondrial dysfunction in human HCC1428 cells assessed as decrease in ATP production at 5 uM incubated for 6 hrs by real time analysis; type: functional, cell-based
[14] = system: MCF-10F; test: Induction of mitochondrial dysfunction in tamoxifen-induced senescent human MCF-10F cells assessed as decrease in spare respiratory capacity at 5 uM incubated for 6 hrs by real-time analysis; type: functional, cell-based
[15] = system: HCC1428; test: Induction of ubiquitin-dependent mitophagy in tamoxifen-induced senescent human HCC1428 cells assessed as increase in PINK1 level at 1 to 5 uM by immunostaining based imaging cytometric analysis; type: functional, cell-based; settings: dose 1-5 µM
[16] = system: CAMA-1; test: Induction of apoptosis in tamoxifen-induced senescent human CAMA-1 cells assessed as phosphatidylserine externalization at 1 to 5 uM incubated for 24 hrs by Annexin V-FITC staining based flow cytometric analysis; type: functional, cell-based; settings: dose 1-5 µM
[17] = system: HCC1500; test: Induction of apoptosis in tamoxifen-induced senescent human HCC1500 cells assessed as phosphatidylserine externalization at 1 to 5 uM incubated for 24 hrs by Annexin V-FITC staining based flow cytometric analysis; type: functional, cell-based; settings: dose 1-5 µM
[18] = system: HCC1428; test: Induction of mitochondrial dysfunction in tamoxifen-induced senescent human HCC1428 cells assessed as decrease in coupling efficiency respiration at 5 uM incubated for 6 hrs by real-time analysis; type: functional, cell-based
[19] = system: MCF-10F; test: Induction of mitochondrial dysfunction in tamoxifen-induced senescent human MCF-10F cells assessed as decrease in maximal respiration at 5 uM incubated for 6 hrs by real-time analysis; type: functional, cell-based
[20] = system: HCC1428; test: Induction of mitochondrial dysfunction in tamoxifen-induced senescent human HCC1428 cells assessed as decrease in spare respiratory capacity at 5 uM incubated for 6 hrs by real-time analysis; type: functional, cell-based
[21] = system: HCC1428; test: Induction of mitochondrial dysfunction in tamoxifen-induced senescent human HCC1428 cells assessed as increase in proton leak at 5 uM incubated for 6 hrs by real-time analysis; type: functional, cell-based
[22] = system: HCC1428; test: Anticancer activity against ER-positive human HCC1428 cells assessed as effect on metabolic activity at 10 uM incubated for 24 hrs by MTT assay; type: functional, cell-based
[23] = system: Mitochondrial membrane; test: Induction of mitochondrial membrane potential depolarization in human ZR-75-30 cells at 1 to 5 uM incubated for 24 hrs by 7-AAD staining based flow cytometric analysis; type: cell membranes; settings: dose 1-5 µM
[24] = system: HCC1428; test: Induction of alternative mitophagy in tamoxifen-induced senescent human HCC1428 cells assessed as increase in Rab9 level at 1 to 5 uM by immunostaining based imaging cytometric analysis; type: functional, cell-based; settings: dose 1-5 µM
[25] = system: HCC1428; test: Induction of autophagy in tamoxifen-induced senescent human HCC1428 cells assessed as increase in ULK1 level at 1 to 5 uM by immunostaining based imaging cytometric analysis; type: functional, cell-based; settings: dose 1-5 µM
[26] = system: HCC1428; test: Induction of apoptosis in tamoxifen-induced senescent human HCC1428 cells assessed as decrease in AKT level at 5 uM incubated for 24 hrs by Western blotting analysis; type: functional, cell-based
[27] = system: HCC1428; test: Induction of mitochondrial dysfunction in tamoxifen-induced senescent human HCC1428 cells assessed as decrease in ATP production at 5 uM incubated for 6 hrs by real-time analysis; type: functional, cell-based
[28] = system: BJ; test: Cytotoxicity against human BJ cells assessed as effect on metabolic activity at 10 uM incubated for 24 hrs by MTT assay; type: toxicity, cell-based
[29] = system: ZR-75-30; test: Induction of apoptosis in human ZR-75-30 cells assessed as phosphatidylserine externalization at 1 to 5 uM incubated for 24 hrs by Annexin V-FITC staining based flow cytometric analysis; type: functional, cell-based; settings: dose 1-5 µM
[30] = system: MCF7; test: Antitumor activity against ER-positive human MCF7 cells xenografted in Danio rerio embryo assessed as decrease in tumor size at 1 to 5 uM administered for 48 hrs by imaging analysis; type: functional, cell-based; settings: dose 1-5 µM
[31] = system: Mitochondrial membrane; test: Induction of mitochondrial membrane potential depolarization in human HCC1428 cells at 1 to 5 uM incubated for 24 hrs by 7-AAD staining based flow cytometric analysis; type: cell membranes; settings: dose 1-5 µM
[32] = system: HCC1428; test: Induction of apoptosis in human HCC1428 cells assessed as phosphatidylserine externalization at 1 to 5 uM incubated for 24 hrs by Annexin V-FITC staining based flow cytometric analysis; type: functional, cell-based; settings: dose 1-5 µM
[33] = system: T47D; test: Antitumor activity against ER-positive human T47D cells xenografted in Danio rerio embryo assessed as decrease in tumor size at 1 to 5 uM administered for 48 hrs by imaging analysis; type: functional, cell-based; settings: dose 1-5 µM
[34] = system: MCF-10F; test: Induction of mitochondrial dysfunction in tamoxifen-induced senescent human MCF-10F cells assessed as increase in proton leak at 5 uM incubated for 6 hrs by real-time analysis; type: functional, cell-based
[35] = system: HCC1428; test: Induction of autophagy in tamoxifen-induced senescent human HCC1428 cells assessed as increase in VPS34 level at 1 to 5 uM by immunostaining based imaging cytometric analysis; type: functional, cell-based; settings: dose 1-5 µM
[36] = system: Mitochondrial membrane; test: Induction of mitochondrial membrane potential depolarization in human HCC1500 cells at 1 to 5 uM incubated for 24 hrs by 7-AAD staining based flow cytometric analysis; type: cell membranes; settings: dose 1-5 µM
[37] = system: CAMA-1; test: Induction of apoptosis in human CAMA-1 cells assessed as phosphatidylserine externalization at 1 to 5 uM incubated for 24 hrs by Annexin V-FITC staining based flow cytometric analysis; type: functional, cell-based; settings: dose 1-5 µM
[38] = system: HCC1428; test: Induction of ubiquitin-dependent mitophagy in tamoxifen-induced senescent human HCC1428 cells assessed as increase in parkin level at 1 to 5 uM by immunostaining based imaging cytometric analysis; type: functional, cell-based; settings: dose 1-5 µM
[39] = system: MCF-10F; test: Induction of mitochondrial dysfunction in tamoxifen-induced senescent human MCF-10F cells assessed as decrease in ATP production at 5 uM incubated for 6 hrs by real-time analysis; type: functional, cell-based
[40] = system: HCC1500; test: Induction of apoptosis in human HCC1500 cells assessed as phosphatidylserine externalization at 1 to 5 uM incubated for 24 hrs by Annexin V-FITC staining based flow cytometric analysis; type: functional, cell-based; settings: dose 1-5 µM
[41] = system: Mitochondrial membrane; test: Induction of mitochondrial membrane potential depolarization in human CAMA-1 cells at 1 to 5 uM incubated for 24 hrs by 7-AAD staining based flow cytometric analysis; type: cell membranes; settings: dose 1-5 µM
[42] = system: HCC1428; test: Induction of autophagosome formation in tamoxifen-induced senescent human HCC1428 cells assessed as increase in ubiquitin level at 1 to 5 uM by immunostaining based imaging cytometric analysis; type: functional, cell-based; settings: dose 1-5 µM
[43] = system: ZR-75-30; test: Induction of apoptosis in tamoxifen-induced senescent human ZR-75-30 cells assessed as phosphatidylserine externalization at 1 to 5 uM incubated for 24 hrs by Annexin V-FITC staining based flow cytometric analysis; type: functional, cell-based; settings: dose 1-5 µM
[44] = system: HCC1428; test: Induction of apoptosis in tamoxifen-induced senescent human HCC1428 cells assessed as phosphatidylserine externalization at 1 to 5 uM incubated for 24 hrs by Annexin V-FITC staining based flow cytometric analysis; type: functional, cell-based; settings: dose 1-5 µM
[45] = system: HCC1428; test: Induction of autophagosome formation in tamoxifen-induced senescent human HCC1428 cells assessed as increase in LC3B level at 1 to 5 uM by immunostaining based imaging cytometric analysis; type: functional, cell-based; settings: dose 1-5 µM
[46] = system: HCC1428; test: Induction of mitochondrial dysfunction in tamoxifen-induced senescent human HCC1428 cells assessed as decrease in maximal respiration at 5 uM incubated for 6 hrs by real-time analysis; type: functional, cell-based
[47] = system: HCC1428; test: Induction of ubiquitin-independent mitophagy in tamoxifen-induced senescent human HCC1428 cells assessed as increase in BNIP3 level at 1 to 5 uM by immunostaining based imaging cytometric analysis; type: functional, cell-based; settings: dose 1-5 µM
[48] = system: HCC1428; test: Upregulation of BECN1 level in tamoxifen-induced senescent human HCC1428 cells at 1 to 5 uM by immunostaining based imaging cytometric analysis; type: functional, cell-based; settings: dose 1-5 µM
[49] = system: MCF-10F; test: Induction of mitochondrial dysfunction in tamoxifen-induced senescent human MCF-10F cells assessed as decrease in coupling efficiency at 5 uM incubated for 6 hrs by real-time analysis; type: functional, cell-based

SMILES: CC(=O)Oc1c(-c2ccc3c(c2)OC(c2ccccc2)(c2ccccc2)O3)oc2cc(OCCCC[P+](c3ccccc3)(c3ccccc3)c3ccccc3)ccc2c1=O.[I-]
- Activity [1]: Active
- Activity [2]: Active
- Activity [3]: Active
- Activity [4]: Active
- Activity [5]: Active
- Activity [6]: Non-toxic
- Activity [7]: Active
- Activity [8]: Non-toxic
- Activity [9]: Active
- Activity [10]: Active
- Activity [11]: Active
- Activity [12]: Active
- Activity [13]: Active

SMILES: O=c1c(O)c(-c2ccc(O)c(O)c2)oc2cc(O)ccc12 [FISETIN]
- Activity [14]: inactive
- Activity [15]: inactive
- Activity [16]: inactive
- Activity [17]: inactive
- Activity [18]: inactive
- Activity [19]: inactive
- Activity [20]: inactive
- Activity [21]: inactive
- Activity [22]: Active
- Activity [23]: inactive
- Activity [24]: inactive
- Activity [25]: inactive
- Activity [26]: Active
- Activity [27]: inactive
- Activity [28]: Toxic
- Activity [29]: inactive
- Activity [30]: inactive
- Activity [31]: inactive
- Activity [32]: inactive
- Activity [33]: inactive
- Activity [34]: inactive
- Activity [35]: inactive
- Activity [36]: inactive
- Activity [5]: Active
- Activity [37]: inactive
- Activity [38]: inactive
- Activity [39]: inactive
- Activity [40]: inactive
- Activity [41]: inactive
- Activity [42]: inactive
- Activity [43]: inactive
- Activity [44]: inactive
- Activity [9]: Active
- Activity [45]: inactive
- Activity [46]: inactive
- Activity [47]: inactive
- Activity [48]: inactive
- Activity [49]: inactive

SMILES: O=c1c(O)c(-c2ccc3c(c2)OC(c2ccccc2)(c2ccccc2)O3)oc2cc(O)ccc12
- Activity [3]: Active; Slight Effect Observed
- Activity [30]: inactive
- Activity [33]: inactive
- Activity [5]: Active
- Activity [7]: Active; Slight Effect Observed
- Activity [9]: Active
- Activity [10]: Active; Slight Effect Observed
- Activity [12]: Active; Slight Effect Observed
- Activity [13]: Active; Slight Effect Observed
